Laboratory results from US12617797B2, “Substituted pyrazolo [1,5-a]pyrimidines having multimodal activity against pain” (ESTEVE PHARMACEUTICALS, S.A., priority 2020, dated 2026).

Legend:
[1] = target: Human α2δ-1 subunit of Cav2.2 calcium channel (Homo sapiens, UniProt P54289); assay: Human α2δ-1 subunit of Cav2.2 calcium channel assay ([3H]-gabapentin binding); settings: binding to the α2δ-1 subunit of voltage-gated calcium channels expressed as Ki; + also covers inhibition between 1% and 50%
Method in brief: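 Displacement of 15 nM [3H]-gabapentin from human α2δ-1-enriched membranes (Hepes-KOH 10 mM, pH 7.4; 27 °C, 60 min) read by filter binding and radioactivity counting. Values are single-point % inhibition (1 or 10 μM) or five-point Ki; 10 μM pregabalin sets NSB.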

[2] = target: T1, Human σ1 receptor (Homo sapiens, UniProt Q99720); assay: Human σ1 receptor radioligand assay ([3H](+)-pentazocine binding, transfected HEK-293 membranes); settings: binding to σ1 receptor expressed as Ki; + also covers inhibition between 1% and 50%; read-out: σ-1 binding
T1 construct: expressed in transfected cells; host or cells: HEK-293
Method in brief: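 Ki was derived from five test concentrations, or % inhibition was measured at a single 1 or 10 μM dose, against 5 nM [3H](+)-pentazocine. Incubation was 120 min at 37° C in 50 mM Tris-HCl pH 8 with 7 μg HEK-293 membranes, and 10 μM haloperidol set non-specific binding. Bound radioactivity was counted after filtration.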

T1 sequence (Q99720 whole entry): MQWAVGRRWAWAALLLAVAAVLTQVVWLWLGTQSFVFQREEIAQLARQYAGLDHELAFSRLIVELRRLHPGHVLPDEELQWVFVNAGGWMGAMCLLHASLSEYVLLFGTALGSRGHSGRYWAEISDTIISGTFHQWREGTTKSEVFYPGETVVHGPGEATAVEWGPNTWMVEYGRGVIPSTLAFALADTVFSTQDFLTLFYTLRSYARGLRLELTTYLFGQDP
Chain of Human α2δ-1 subunit of Cav2.2 calcium channel (P54289 25-1103): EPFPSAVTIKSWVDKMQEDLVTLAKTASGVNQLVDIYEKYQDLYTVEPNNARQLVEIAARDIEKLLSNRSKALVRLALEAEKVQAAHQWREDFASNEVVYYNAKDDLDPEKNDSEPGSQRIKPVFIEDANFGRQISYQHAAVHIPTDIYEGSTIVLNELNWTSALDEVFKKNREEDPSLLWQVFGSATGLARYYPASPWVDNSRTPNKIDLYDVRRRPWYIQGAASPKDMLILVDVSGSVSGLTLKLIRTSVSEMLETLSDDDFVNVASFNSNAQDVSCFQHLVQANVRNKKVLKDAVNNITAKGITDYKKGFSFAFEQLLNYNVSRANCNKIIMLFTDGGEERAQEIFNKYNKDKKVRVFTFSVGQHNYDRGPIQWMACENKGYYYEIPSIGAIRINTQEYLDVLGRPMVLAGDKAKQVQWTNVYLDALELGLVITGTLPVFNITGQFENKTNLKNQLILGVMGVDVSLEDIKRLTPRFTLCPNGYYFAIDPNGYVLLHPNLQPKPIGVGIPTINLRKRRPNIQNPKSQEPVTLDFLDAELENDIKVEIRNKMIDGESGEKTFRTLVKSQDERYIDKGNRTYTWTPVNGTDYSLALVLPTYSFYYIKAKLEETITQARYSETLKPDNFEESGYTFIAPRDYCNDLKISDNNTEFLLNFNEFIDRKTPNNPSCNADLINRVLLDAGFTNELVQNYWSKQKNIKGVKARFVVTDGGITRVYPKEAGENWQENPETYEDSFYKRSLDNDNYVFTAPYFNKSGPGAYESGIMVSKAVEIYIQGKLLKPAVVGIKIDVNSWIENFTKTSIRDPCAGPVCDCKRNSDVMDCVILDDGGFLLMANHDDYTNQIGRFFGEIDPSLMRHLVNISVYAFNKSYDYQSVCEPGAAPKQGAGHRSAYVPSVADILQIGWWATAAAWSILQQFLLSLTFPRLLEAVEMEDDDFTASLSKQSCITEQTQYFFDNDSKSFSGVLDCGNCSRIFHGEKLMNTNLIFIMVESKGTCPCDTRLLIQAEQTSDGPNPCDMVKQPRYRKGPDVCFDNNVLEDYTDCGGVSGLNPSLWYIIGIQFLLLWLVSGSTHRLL

Row | Compound | Ki [1] | Ki [2]
1 | Cc1nn2c(C3CCCN(Cc4ccccc4)C3)ccnc2c1CN(C)CC1CC1 (stereo not shown) [Example 234, 1-(7-(1-Benzylpiperidin-3-yl)-2-methylpyrazolo[1,5-a]pyrimidin-3-yl)-N-(cyclopropylmethyl)-N-methylmethanamine] | 500 to 5000 nM | < 500 nM
2 | Cc1nn2c(C3CCCN(Cc4ccc(Cl)cc4)C3)ccnc2c1CN(CC1CCOCC1)CC(F)(F)F (stereo not shown) [Example 235, N-((7-(1-(4-Chlorobenzyl)piperidin-3-yl)-2-methylpyrazolo[1,5-a]pyrimidin-3-yl)methyl)-2,2,2-trifluoro-N-((tetrahydro-2H-pyran-4-yl)methyl)ethan-1-amine] | > 5000 nM | 500 to 1000 nM
3 | Cc1nn2c(C3CCCN(Cc4ccc(Cl)cc4)C3)ccnc2c1CCN(C)C (stereo not shown) [Example 236, 2-(7-(1-(4-Chlorobenzyl)piperidin-3-yl)-2-methylpyrazolo[1,5-a]pyrimidin-3-yl)-N,N-dimethylethan-1-amine] | 500 to 5000 nM | < 500 nM
4 | Cc1cnc2c(CNCC3CCOCC3)c(C)nn2c1C1CCCN(Cc2ccc(Cl)cc2)C1 (stereo not shown) [Example 237, 1-(7-(1-(4-Chlorobenzyl)piperidin-3-yl)-2,6-dimethylpyrazolo[1,5-a]pyrimidin-3-yl)-N-((tetrahydro-2H-pyran-4-yl)methyl)methanamine] | < 500 nM | < 500 nM
5 | Cc1cc(C2CCCN(Cc3ccc(Cl)cc3)C2)n2nc(C)c(CNCC3CCOCC3)c2n1 (stereo not shown) [Example 238, 1-(7-(1-(4-Chlorobenzyl)piperidin-3-yl)-2,5-dimethylpyrazolo[1,5-a]pyrimidin-3-yl)-N-((tetrahydro-2H-pyran-4-yl)methyl)methanamine] | 500 to 5000 nM | < 500 nM
6 | Cc1nn2c([C@H]3CCCN(Cc4ccccc4F)C3)ccnc2c1CNCC1CCOCC1 [Example 239, (S)-1-(7-(1-(2-Fluorobenzyl)piperidin-3-yl)-2-methylpyrazolo[1,5-a]pyrimidin-3-yl)-N-((tetrahydro-2H-pyran-4-yl)methyl)methanamine] | > 5000 nM | < 500 nM
7 | Cc1nn2c([C@H]3CCCN(Cc4ccc(F)cc4F)C3)ccnc2c1CNCC1CCOCC1 [Example 240, (S)-1-(7-(1-(2,4-Difluorobenzyl)piperidin-3-yl)-2-methylpyrazolo[1,5-a]pyrimidin-3-yl)-N-((tetrahydro-2H-pyran-4-yl)methyl)methanamine] | 500 to 5000 nM | < 500 nM
8 | Cc1nn2c([C@H]3CCCN(Cc4cc(F)cc(F)c4)C3)ccnc2c1CNCC1CCOCC1 [Example 241, (S)-1-(7-(1-(3,5-Difluorobenzyl)piperidin-3-yl)-2-methylpyrazolo[1,5-a]pyrimidin-3-yl)-N-((tetrahydro-2H-pyran-4-yl)methyl)methanamine] | > 5000 nM | < 500 nM
9 | COc1ccc(CN2CCCC(c3ccnc4c(CNCC5CCOCC5)c(C)nn34)C2)cc1 (stereo not shown) [Example 242, 1-(7-(1-(4-Methoxybenzyl)piperidin-3-yl)-2-methylpyrazolo[1,5-a]pyrimidin-3-yl)-N-((tetrahydro-2H-pyran-4-yl)methyl)methanamine] | > 5000 nM | < 500 nM
10 | Cc1nn2c([C@H]3CCCN(Cc4ccccc4)C3)ccnc2c1CNC[C@@H]1CCN(C)C(=O)C1 [Example 243, (R)-4-((((7-((S)-1-Benzylpiperidin-3-yl)-2-methylpyrazolo[1,5-a]pyrimidin-3-yl)methyl)amino)methyl)-1-methylpiperidin-2-one] | 500 to 5000 nM | > 1000 nM
11 | Cc1nn2c([C@H]3CCCN(Cc4ccccc4)C3)ccnc2c1CNC[C@H]1CCN(C)C(=O)C1 [Example 244, (S)-4-((((7-((S)-1-Benzylpiperidin-3-yl)-2-methylpyrazolo[1,5-a]pyrimidin-3-yl)methyl)amino)methyl)-1-methylpiperidin-2-one] | 500 to 5000 nM | > 1000 nM
12 | Cc1nn2c([C@H]3CCCN(Cc4ccccc4)C3)ccnc2c1CNC[C@H]1CCC(=O)NC1 [Example 245, (R)-5-((((7-((S)-1-Benzylpiperidin-3-yl)-2-methylpyrazolo[1,5-a]pyrimidin-3-yl)methyl)amino)methyl)piperidin-2-one] | 500 to 5000 nM | > 1000 nM
13 | Cc1nn2c([C@H]3CCCN(Cc4ccccc4)C3)ccnc2c1CNC[C@@H]1CCC(=O)NC1 [Example 246, (S)-5-((((7-((S)-1-Benzylpiperidin-3-yl)-2-methylpyrazolo[1,5-a]pyrimidin-3-yl)methyl)amino)methyl)piperidin-2-one] | 500 to 5000 nM | > 1000 nM
14 | CC(=O)N1CCC(CNCc2c(C)nn3c([C@H]4CCCN(Cc5ccc(F)c(F)c5)C4)ccnc23)CC1 [Example 247, (S)-1-(4-((((7-(1-(3,4-Difluorobenzyl)piperidin-3-yl)-2-methylpyrazolo[1,5-a]pyrimidin-3-yl)methyl)amino)methyl)piperidin-1-yl)ethan-1-one] | < 500 nM | < 500 nM
15 | COc1nn2c(C3CCCN(Cc4ccccc4)C3)ccnc2c1CNCC1CCOCC1 (stereo not shown) [Example 248, 1-(7-(1-Benzylpiperidin-3-yl)-2-methoxypyrazolo[1,5-a]pyrimidin-3-yl)-N-((tetrahydro-2H-pyran-4-yl)methyl)methanamine] | 500 to 5000 nM | 500 to 1000 nM
16 | Cc1nn2c(CC3CCCN(Cc4ccc(Cl)cc4)C3)ccnc2c1-c1ccncc1 (stereo not shown) [Example 249, 7-((1-(4-Chlorobenzyl)piperidin-3-yl)methyl)-2-methyl-3-(pyridin-4-yl)pyrazolo[1,5-a]pyrimidine] | > 5000 nM | < 500 nM
17 | Cc1nn2c(CC3CCCN(Cc4cccc(Cl)c4)C3)ccnc2c1-c1ccncc1 (stereo not shown) [Example 250] | > 5000 nM | 500 to 1000 nM
18 | Cc1nn2c(CC3CCCN(Cc4ccc(Cl)cc4)C3)ccnc2c1CN(C)C (stereo not shown) [Example 251, 1-(7-((1-(4-Chlorobenzyl)piperidin-3-yl)methyl)-2-methylpyrazolo[1,5-a]pyrimidin-3-yl)-N,N-dimethylmethanamine] | > 5000 nM | < 500 nM
19 | Cc1nn2c(CC3CCCN(Cc4cccc(Cl)c4)C3)ccnc2c1CN(C)C (stereo not shown) [Example 252, 1-(7-((1-(3-Chlorobenzyl)piperidin-3-yl)methyl)-2-methylpyrazolo[1,5-a]pyrimidin-3-yl)-N,N-dimethylmethanamine] | > 5000 nM | < 500 nM
20 | Cc1nn2c(C3CCCCN(Cc4ccc(Cl)cc4)C3)ccnc2c1CNCC1CCOCC1 (stereo not shown) [Example 253, 1-(7-(1-(4-Chlorobenzyl)azepan-3-yl)-2-methylpyrazolo[1,5-a]pyrimidin-3-yl)-N-((tetrahydro-2H-pyran-4-yl)methyl)methanamine] | > 5000 nM | < 500 nM
